According to patent US4340672A, “Enzymatic synthesis of β-lactam antibacterials” (Shionogi & Co., Ltd., priority 1979, dated 1982):
Converted amounts (≈) assume the structure as drawn.

Tests used:
[1] = test system: immobilized enzyme (acylase) of Bacillus circulans M-1123-5; assay: Reactivity of TA esters by column method; format: biochemical; conditions: 7-ACA 5 mg/ml, 37° C., 25 ml/hr
Method: Concentration of CET in the eluate is determined by assaying antibacterial activity against Bacillus subtilis PCI-219 to estimate the yield on Table 3 in the laminar flow state. (Immobilization of purified enzyme)

[2] = test system: immobilized enzyme (acylase) of Bacillus circulans M-1123-5 on Sepharose 4B; assay: Reactivity of TA esters by batch process; format: biochemical; conditions: 7-ACA to CET, 7-ACA 30 mg in 10 ml, pH 7.0, 37° C., 3 hours
Method: To a solution of 7-ACA (30 mg) and TA-esters (given amount) in M/10-phosphate buffer (pH 7.0) (10 ml) is added an immobilized enzyme (0.9 g) on Sepharose 4B, and the mixture is stirred at 37° C. for 3 hours. Concentration of CET in the reaction mixture is estimated by assaying antibacterial activity against Bacillus subtilis PCI-219 and conversion rate from 7-ACA to CET is calculated.

[3] = test system: acylase of Xanthomonas axonopodis M-621-1 on Sepharose 4B; assay: Cephalexin production with immobilized enzyme of Xanthomonas axonopodis M-621-1; format: biochemical; conditions: ester 45 mg, 7-aminodeacetoxycephalosporanic acid 3 mg, 37° C., 3.5 hours
[4] = test system: acylase of Micrococcus roseus M-1054-1 (broth); assay: Cephalothin production with broth of Micrococcus roseus; format: biochemical; conditions: 3.5 hours at 37° C.; paper disc assay against Bacillus subtilis PCI-219
Method: The broth is adjusted to pH 7.0. The broth (4.5 ml) is added to a solution of 7-ACA (3%) and (i) 2-thienylacetic acid glycerin ester, (ii) 2-thienylacetic acid tetraethyleneglycol ester or (iii) 2-thienylacetic acid octaethyleneglycol ester in 0.2 M-phosphate buffer (0.5 ml) to react for 3.5 hours at 37° C. The reaction mixture is centrifuged to remove cells and the supernatant is assayed by paper disc assay method against Bacillus subtilis PCI-219 to the following values of produced cephalothin.

[5] = test system: A. fragerum M-2183-1 acylase; assay: Selectivity of the acylases; conditions: ester (I) 45 mg, amine (II) 9 mg, 37° C., 3 hours 45 minutes; TLC and paper-disc assay with Bacillus subtilis PCI-219
[6] = test system: A. globiformis M-345-2 acylase; assay: Selectivity of the acylases; conditions: ester (I) 45 mg, amine (II) 9 mg, 37° C., 3 hours 45 minutes; TLC and paper-disc assay with Bacillus subtilis PCI-219
[7] = test system: B. Circulans M-1123-5 acylase; assay: Selectivity of the acylases; conditions: ester (I) 45 mg, amine (II) 9 mg, 37° C., 3 hours 45 minutes; TLC and paper-disc assay with Bacillus subtilis PCI-219
Solubility in water = format: physicochemical; conditions: read-out: concentration that can dissolve in water
[8] = test system: acylase of Micrococcus luteus M-331-1 (dried cells); assay: CET production with dried cells of Micrococcus luteus M-331-1; format: biochemical; conditions: dried cells 26 mg, 3 hours, 37° C., pH 7.0
Method: The broth is added into an aqueous medium (100 volumes) of the same composition as above, and incubated for 3 days at 28° C.
The broth is neutralized with hydrochloric acid to pH 7, centrifuged to collect the cells, washed with water and dried by washing with acetone to give 1.302 g of dry cells.
The dried cells (26 mg) are suspended in water (1.5 ml), diluted with a solution of 7-ACA (4 mg/ml) and TA-tetraester (20 mg/ml) in M/5-phosphate buffer (pH 7.0) (0.5 ml) and shaken for 3 hours at 37° C. to produce CET at a conversion rate of about 30%. (Immobilized cell entrapted in acrylamide gel)

[9] = test system: acylase of Micrococcus luteus M-331-1 (immobilized cells); assay: CET production with immobilized cells in acrylamide gel; format: biochemical; conditions: 7-ACA 1 mg/ml
Method: In a solution of acrylamide monomer (750 mg) and N,N'-methylenebisacrylamide (40 mg) in M/20-phosphate buffer (pH 7.0) (4 ml) are suspended said dry cells (1 g). To this solution is added 5% 3-dimethylaminopropionitrile (0.5 ml) and aqueous 1% potassium persulfate (0.5 ml) and the mixture is allowed to stand at 25° C. for 30 minutes. Produced gel is crushed with blender and produced particles over 100 mesh are collected, filled in a 10 mm .phi. tube, and washed with M/20-phosphate buffer (pH 7.0) to give a column (10.2 ml) of immobilized cells.

[10] = test system: acylase of Bacillus circulans M-1123-5 absorbed on Celite 560; assay: Acylating capacity of absorbed enzyme on Celite 560; format: biochemical
[11] = test system: immobilized enzyme from Arthrobacter globiformis M-345-2; assay: Acylating capacity of immobilized enzyme from Arthrobacter globiformis M-345-2; format: biochemical
[12] = test system: purified acylase of Bacillus circulans M-1123-5 immobilized on agar gel; assay: Acylating capacity of immobilized pure enzyme; format: biochemical
[13] = TA-tetraester 12.5 mg/ml, pH 7.0
[14] = TA-tetraester 18.8 mg/ml, pH 7.0

COCCOCCOCCOCCOC(=O)Cc1cccs1 [TA-tetraester methyl ether]
7-ACA→CET Conversion rate (%) ([1]; carrier Agar gel): 86.5% | 7-ACA→CET Conversion rate (%) ([1]; carrier Sepharose 4B): 86.5% | Conversion rate (%) [2]: 73.3%

COCCOCCOC(=O)[C@H](N)c1ccccc1 [D-phenylglycin diethyleneglycol ester methyl ether]
conversion rate to cephalexin [3]: 26.3%

O=C(Cc1cccs1)OCCOCCOCCOCCOCCOCCOCCOCCO [TA-octaester, 2-thienylacetic acid octaethyleneglycol ester]
Conversion rate (%) [2]: 76.2% | produced cephalothin [4]: 22 µg/mL

O=C(Cc1ccccc1)OCCOCCOCCOCCO [drawing 20]
product detected and determined, A. fragerum M-2183-1 [5]: 20.3 | product detected and determined, A. globiformis M-345-2 [6]: 18.0 | product detected and determined, B. Circulans M-1123-5 [7]: Decomposition with penicillinase

O=C(Cc1cccs1)OCCOCCOCCOCCOCCO [TA-pentaester]
7-ACA→CET Conversion rate (%) ([1]; carrier Sepharose 4B): 69.9% | Conversion rate (%) [2]: 80.6%

COC(=O)Cc1cccs1 [2-thienylacetic acid methyl ester]
solubility (Solubility in water): 10000 µg/mL (≈ 64 mM)

O=C(Cc1cccs1)OCC(O)CO (stereo not shown) [TA-glycerin ester, 2-thienylacetic acid glycerin ester]
7-ACA→CET Conversion rate (%) ([1]; carrier Sepharose 4B): 82.0% | Conversion rate (%) [2]: 73.7% | produced cephalothin [4]: 34 µg/mL

O=C(Cc1cccs1)OCCOCCOCCOCCO [TA-tetraester, 2-thienylacetic acid tetraethyleneglycol ester]
7-ACA→CET Conversion rate (%) ([1]; carrier Agar gel): 85.0% | 7-ACA→CET Conversion rate (%) ([1]; carrier Sepharose 4B): 87.6% | conversion rate (CET produced) [8]: about 30% | Conversion rate (%) [2]: 77.1% | conversion rate (CET in eluate) ([9]; TA-tetraester 6 mg/ml): 28.6 to 32.5% | conversion rate (CET in eluate) ([9]; TA-tetraester 30 mg/ml): 31.2 to 34.1% | 7-ACA→CET Conversion rate (%) In eluate [10, 13]: 63.0% | 7-ACA→CET Conversion rate (%) Isolated Na salt [10, 13]: 53.0% | 7-ACA→CET Conversion rate (%) In eluate [10, 14]: 63.0% | 7-ACA→CET Conversion rate (%) Isolated Na salt [10, 14]: 64.2% | 7-ACA→CET Conversion rate (%) In eluate ([10]; TA-tetraester 25 mg/ml, pH 6.0): 62.8% | 7-ACA→CET Conversion rate (%) Isolated Na salt ([10]; TA-tetraester 25 mg/ml, pH 6.0): 48.5% | 7-ACA→CET Conversion rate (%) In eluate ([10]; TA-tetraester 25 mg/ml, pH 7.0): 72.9% | 7-ACA→CET Conversion rate (%) Isolated Na salt ([10]; TA-tetraester 25 mg/ml, pH 7.0): 67.2% | 7-ACA→CET Conversion rate (%) In eluate ([10]; TA-tetraester 25 mg/ml, pH 8.0): 71.6% | 7-ACA→CET Conversion rate (%) Isolated Na salt ([10]; TA-tetraester 25 mg/ml, pH 8.0): 49.3% | Conversion rate ([11]; 7-ACA 1 mg/ml, TA-ester 114, Sephalose 4B): 78.5% | Conversion rate ([11]; 7-ACA 1 mg/ml, TA-ester 120, Sephalose 4B): 83.7% | Conversion rate ([11]; 7-ACA 2 mg/ml, TA-ester 120, Sephalose 4B): 71.0% | Conversion rate ([11]; 7-ACA 3 mg/ml, TA-ester 120, Sephalose 4B): 56.3% | produced cephalothin [4]: 26 µg/mL

COCCOCCOC(=O)C(N)c1ccccc1 (stereo not shown)
product detected and determined, A. globiformis M-345-2 [6]: 10.6 | product detected and determined, B. Circulans M-1123-5 [7]: 29.6

COCCOCCOCCOCCOCCOCCOCCOCCOC(=O)Cc1cccs1 [TA-octaester methyl ether]
7-ACA→CET Conversion rate (%) ([12]; Elute 39 ml, 7-ACA 10 mg/ml, ester 142.2 mg/ml, 16 ml/hr): 84.8% | 7-ACA→CET Conversion rate (%) ([12]; Elute 173 ml): 85.2% | 7-ACA→CET Conversion rate (%) ([12]; Elute 306 ml): 85.3% | 7-ACA→CET Conversion rate (%) ([12]; Elute 405 ml): 90.4% | 7-ACA→CET Conversion rate (%) ([12]; Elute 731 ml): 85.7% | 7-ACA→CET Conversion rate (%) ([12]; Elute 782 ml): 86.3% | 7-ACA→CET Conversion rate (%) ([12]; Elute 917 ml): 88.5% | 7-ACA→CET Conversion rate (%) ([12]; Elute 1089 ml): 86.9% | 7-ACA→CET Conversion rate (%) ([12]; Elute 1156 ml): 86.6% | 7-ACA→CET Conversion rate (%) ([12]; Elute 1294 ml): 82.5% | 7-ACA→CET Conversion rate (%) ([12]; Elute 1432 ml): 83.1% | 7-ACA→CET Conversion rate (%) ([12]; Elute 1534 ml): 82.0% | 7-ACA→CET Conversion rate (%) ([1]; carrier Agar gel): 69.8% | 7-ACA→CET Conversion rate (%) ([1]; carrier Sepharose 4B): 69.8% | Conversion rate (%) [2]: 68.2% | Conversion rate ([11]; 7-ACA 1 mg/ml, TA-ester 60, Agar gel): 80.5% | Conversion rate ([11]; 7-ACA 1 mg/ml, TA-ester 114, Agar gel): 76.5%

O=C(Cc1ccccc1)OCCOCCOCCOCCO [drawing 18]
product detected and determined, A. fragerum M-2183-1 [5]: 16.1 | product detected and determined, A. globiformis M-345-2 [6]: 10.1 | product detected and determined, B. Circulans M-1123-5 [7]: 36.2

COCCOCCOCCOCCOCCOC(=O)Cn1cnnn1
product detected and determined, A. fragerum M-2183-1 [5]: 54.9 | product detected and determined, A. globiformis M-345-2 [6]: 43.7 | product detected and determined, B. Circulans M-1123-5 [7]: 55.7
